{
  "source": "patent US20100267561A1",
  "about": "“HERBICIDAL PYRIDAZINONE DERIVATIVES” (priority 2007, published 2010)",
  "type_in_all_cases": "in vivo",
  "key": {"[1]": {"test_system": "barnyardgrass (Echinochloa crus-galli)", "assay": "Test A pre-/postemergence plant response", "outline": "(§1)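 Seeds sown in loam–sand blend; test chemicals in non-phytotoxic solvent with surfactant applied preemergence as directed soil spray and, concurrently, postemergence to plants 2–10 cm tall at one- to two-leaf stage. Greenhouse ~10 days, then visual injury rating vs untreated controls on 0–100 scale (0 = no effect, 100 = complete control).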"}, "[2]": {"test_system": "corn (Zea mays)", "assay": "Test A pre-/postemergence plant response", "outline": "as §1"}, "[3]": {"test_system": "large crabgrass (Digitaria sanguinalis)", "assay": "Test A pre-/postemergence plant response", "outline": "as §1"}, "[4]": {"test_system": "pigweed (Amaranthus retroflexus)", "assay": "Test A pre-/postemergence plant response", "outline": "as §1"}, "[5]": {"test_system": "wheat (Triticum aestivum)", "assay": "Test A pre-/postemergence plant response", "outline": "as §1"}, "[6]": {"test_system": "canarygrass (Phalaris minor)", "assay": "Test B postemergence plant response", "conditions": "for Plant response rating, Canarygrass: Postemergence", "outline": "(§2)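 Test compounds were applied postemergence to plants 2 to 18 cm tall (1- to 4-leaf stage). After 13 to 15 days in a greenhouse, each species was visually compared with untreated controls and rated 0 (no effect) to 100 (complete control).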"}, "[7]": {"test_system": "chickweed (Stellaria media)", "assay": "Test B postemergence plant response", "conditions": "for Plant response rating, Chickweed: Postemergence", "outline": "as §2"}, "[8]": {"test_system": "windgrass (Apera spica-venti)", "assay": "Test B postemergence plant response", "conditions": "for Windgrass plant response rating: postemergence, 0-100 scale; for Plant response rating, Windgrass: Postemergence", "outline": "as §2"}, "[9]": {"test_system": "winter barley (Hordeum vulgare)", "assay": "Test B postemergence plant response", "conditions": "for Plant response rating, Barley: Postemergence, scale 0 to 100, 0 no effect, 100 complete control", "outline": "as §2"}, "[10]": {"test_system": "barnyardgrass (Echinochloa crus-galli)", "assay": "Test B flooded paddy test plant response", "outline": "(§3)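 Paddy-water application to 2-leaf plants in pots held under 3 cm of flooding; response is a 0–100 visual control rating against controls after 13 to 15 days, and a dash marks a missing result.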"}, "[11]": {"test_system": "ducksalad (Heteranthera limosa)", "assay": "Test B flooded paddy test plant response", "outline": "as §3"}, "[12]": {"test_system": "rice (Oryza sativa)", "assay": "Test B flooded paddy test plant response", "outline": "as §3"}, "[13]": {"test_system": "umbrella sedge (Cyperus difformis)", "assay": "Test B flooded paddy test plant response", "outline": "as §3"}, "[14]": {"conditions": "Postemergence, 31 g ai/ha, 0 to 100 scale (0 no effect, 100 complete control)"}, "[15]": {"conditions": "Postemergence, 125 g ai/ha, 0 to 100 scale, 0 no effect, 100 complete control"}, "[16]": {"conditions": "Preemergence, 31 g ai/ha, 0 to 100 scale, 0 is no effect, 100 is complete control"}, "[17]": {"conditions": "Preemergence, 125 g ai/ha, 0 to 100 scale (0 no effect, 100 complete control)"}, "[18]": {"conditions": "8 g ai/ha, postemergence, 0-100 scale"}, "[19]": {"conditions": "62 g ai/ha, scale 0 to 100, 0 no effect, 100 complete control"}, "[20]": {"conditions": "Flood (flooded paddy test), 62 g ai/ha, scale 0 to 100, 0 no effect, 100 complete control"}, "[21]": {"conditions": "Flood (flooded paddy test), 125 g ai/ha, scale 0 to 100, 0 no effect, 100 complete control"}, "[22]": {"conditions": "Flood (flooded paddy test), 250 g ai/ha, scale 0 to 100, 0 no effect, 100 complete control"}, "[23]": {"conditions": "Flood, 31 g ai/ha, scale 0 to 100"}},
  "data": [
    {"smiles": "Cc1nn(C)c(=O)c(-n2nc(-c3ccc(Br)cc3)cc2C)c1O", "note": "[Compound 81]", "values": [
      {"measurement": "Plant response rating, Barnyardgrass", "setting": "[1]; [14]", "result": 90},
      {"measurement": "Plant response rating, Barnyardgrass", "setting": "[1]; [15]", "result": 100},
      {"measurement": "Plant response rating, Barnyardgrass", "setting": "[1]; [16]", "result": 70},
      {"measurement": "Plant response rating, Barnyardgrass", "setting": "[1]; [17]", "result": 100},
      {"measurement": "Plant response rating, Corn", "setting": "[2]; [14]", "result": 30},
      {"measurement": "Plant response rating, Corn", "setting": "[2]; [15]", "result": 100},
      {"measurement": "Plant response rating, Corn", "setting": "[2]; [16]", "result": 30},
      {"measurement": "Plant response rating, Corn", "setting": "[2]; [17]", "result": 50},
      {"measurement": "Plant response rating, Crabgrass, Large", "setting": "[3]; [14]", "result": 90},
      {"measurement": "Plant response rating, Crabgrass, Large", "setting": "[3]; [15]", "result": 100},
      {"measurement": "Plant response rating, Crabgrass, Large", "setting": "[3]; [16]", "result": 70},
      {"measurement": "Plant response rating, Crabgrass, Large", "setting": "[3]; [17]", "result": 100},
      {"measurement": "Plant response rating, Pigweed", "setting": "[4]; [14]", "result": 0},
      {"measurement": "Plant response rating, Pigweed", "setting": "[4]; [15]", "result": 0},
      {"measurement": "Plant response rating, Pigweed", "setting": "[4]; [16]", "result": 0},
      {"measurement": "Plant response rating, Pigweed", "setting": "[4]; [17]", "result": 0},
      {"measurement": "Plant response rating, Wheat", "setting": "[5]; [14]", "result": 0},
      {"measurement": "Plant response rating, Wheat", "setting": "[5]; [15]", "result": 70},
      {"measurement": "Plant response rating, Wheat", "setting": "[5]; [16]", "result": 20},
      {"measurement": "Plant response rating, Wheat", "setting": "[5]; [17]", "result": 50},
      {"measurement": "Canarygrass plant response rating", "setting": "[6]; [18]", "result": 65},
      {"measurement": "Plant response rating, Canarygrass", "setting": "[6]; 31 g ai/ha, scale 0 to 100", "result": 98},
      {"measurement": "Plant response rating, Canarygrass", "setting": "[6]; [19]", "result": 100},
      {"measurement": "Chickweed plant response rating", "setting": "[7]; [18]", "result": 0},
      {"measurement": "Plant response rating, Chickweed", "setting": "[7]; 16 g ai/ha, scale 0 to 100", "result": 0},
      {"measurement": "Plant response rating, Chickweed", "setting": "[7]; 31 g ai/ha, scale 0 to 100", "result": 0},
      {"measurement": "Plant response rating, Chickweed", "setting": "[7]; [19]", "result": 0},
      {"measurement": "Windgrass plant response rating", "setting": "[8]; 8 g ai/ha", "result": 45},
      {"measurement": "Windgrass plant response rating", "setting": "[8]; 16 g ai/ha", "result": 80},
      {"measurement": "Plant response rating, Windgrass", "setting": "[8]; 31 g ai/ha, scale 0 to 100", "result": 85},
      {"measurement": "Plant response rating, Windgrass", "setting": "[8]; [19]", "result": 95},
      {"measurement": "Barley plant response rating", "setting": "[9]; [18]", "result": 10},
      {"measurement": "Plant response rating, Barley", "setting": "[9]; 16 g ai/ha", "result": 15},
      {"measurement": "Plant response rating, Barley", "setting": "[9]; 31 g ai/ha", "result": 70},
      {"measurement": "Plant response rating, Barley", "setting": "[9]; 62 g ai/ha", "result": 98},
      {"measurement": "Plant response rating, Barnyardgrass", "setting": "[10]; [20]", "result": 0},
      {"measurement": "Plant response rating, Barnyardgrass", "setting": "[10]; [21]", "result": 0},
      {"measurement": "Plant response rating, Barnyardgrass", "setting": "[10]; [22]", "result": 0},
      {"measurement": "Plant response rating, Barnyardgrass", "setting": "[10]; [23]", "result": 0},
      {"measurement": "Plant response rating, Ducksalad", "setting": "[11]; [20]", "result": 0},
      {"measurement": "Plant response rating, Ducksalad", "setting": "[11]; [21]", "result": 0},
      {"measurement": "Plant response rating, Ducksalad", "setting": "[11]; [22]", "result": 0},
      {"measurement": "Plant response rating, Ducksalad", "setting": "[11]; [23]", "result": 0},
      {"measurement": "Plant response rating, Rice", "setting": "[12]; [20]", "result": 0},
      {"measurement": "Plant response rating, Rice", "setting": "[12]; [21]", "result": 0},
      {"measurement": "Plant response rating, Rice", "setting": "[12]; [22]", "result": 0},
      {"measurement": "Plant response rating, Rice", "setting": "[12]; [23]", "result": 0},
      {"measurement": "Plant response rating, Sedge, Umbrella", "setting": "[13]; [20]", "result": 0},
      {"measurement": "Plant response rating, Sedge, Umbrella", "setting": "[13]; [21]", "result": 0},
      {"measurement": "Plant response rating, Sedge, Umbrella", "setting": "[13]; [22]", "result": 0},
      {"measurement": "Plant response rating, Sedge, Umbrella", "setting": "[13]; [23]", "result": 0}
    ]}
  ]
}
